Laboratory results reported in publication PMC12578816 (Scientific Reports, 2025).
pKi: −log10 of the molar value. ≈ marks a conversion by molar mass, not a printed value. Entries after “also recorded” stand apart in the source; their conditions may differ. Where two headings read alike, the source gives them in different places.

Experiments:
[1] = tested on: α-glucosidase (from Saccharomyces cerevisiae); test: α-glucosidase inhibitory assay; format: biochemical
[2] = tested on: α-glucosidase; details: cited from earlier work
[3] = tested on: α-glucosidase (from Saccharomyces cerevisiae); test: α-glucosidase enzyme kinetic analysis; details: for inhibition mechanism: Lineweaver–Burk plots; for pKi: secondary plot of slopes

CC(=O)c1nccc2c1[nH]c1ccccc12 [1-acetyl-β-carboline]
α-glucosidase inhibitory activity of isolated compounds (in words) [1]: no inhibitory activity

O=Cc1ccc(O)cc1 [4-hydroxybenzaldehyde]
α-glucosidase inhibitory activity of isolated compounds (in words) [1]: no inhibitory activity

C[C@H]1O[C@H](O[C@H]2[C@H](O)[C@@H](O)[C@@H](O[C@H]3[C@H](O)[C@@H](O)C(O)O[C@@H]3CO)O[C@@H]2CO)[C@H](O)[C@@H](O)[C@@H]1N[C@H]1C=C(CO)[C@@H](O)[C@H](O)[C@H]1O (stereo partly drawn) [Acarbose, reference compound]
Inhibition (%) ([1]; 10 mg/mL, n = 3, mean ± SD): 80.2 ± 0.7%
inhibition mechanism [2]: competitive inhibitor
inhibition mechanism [3]: competitive inhibition

Nc1ncnc2c1ncn2[C@@H]1O[C@H](CO)[C@@H](O)[C@H]1O [Adenosine]
α-glucosidase inhibitory activity of isolated compounds (in words) [1]: exhibited α-glucosidase inhibitory activity
inhibition mechanism [3]: mixed-type
pKi [3]: 4.04

CCCCCCCCCCCCCCCC(=O)O [C16:0, Palmitic acid]
inhibition mechanism ([2]; fatty acids): mixed-type

OC[C@H]1O[C@H](O[C@H]2[C@H](O)[C@@H](O)[C@@H](O[C@H]3[C@H](O)[C@@H](O)C(O)O[C@@H]3CO)O[C@@H]2CO)[C@H](O)[C@@H](O)[C@@H]1N[C@@H]1[C@H](O)[C@@H](O)[C@H](O)[C@]2(CO)O[C@H]12 (stereo partly drawn) [CKD-711]
IC50 [2]: 2.5 µg/mL (≈ 3.69 µM)

OC[C@H]1O[C@H](O[C@H]2[C@H](O)[C@@H](O)[C@@H](O[C@H]3[C@H](O)[C@@H](O)[C@@H](O[C@H]4[C@H](O)[C@@H](O)[C@@H](O[C@H]5[C@H](O)[C@@H](O)C(O)O[C@@H]5CO)O[C@@H]4CO)O[C@@H]3CO)O[C@@H]2CO)[C@H](O)[C@@H](O)[C@@H]1N[C@@H]1[C@H](O)[C@@H](O)[C@H](O)[C@]2(CO)O[C@H]12 (stereo partly drawn) [CKD-711a]
IC50 [2]: 6.5 µg/mL (≈ 6.49 µM)

CCCCOC(=O)c1ccccc1C(=O)OCCCC [DBP, dibutyl phthalate]
α-glucosidase inhibitory activity of isolated compounds (in words) [1]: exhibited α-glucosidase inhibitory activity
inhibition mechanism [3]: mixed-type
pKi [3]: 3.29

O=c1ccn([C@@H]2O[C@H](CO)[C@@H](O)[C@H]2O)c(=O)[nH]1 [Uridine]
α-glucosidase inhibitory activity of isolated compounds (in words) [1]: exhibited α-glucosidase inhibitory activity
inhibition mechanism [3]: competitive inhibitor; also recorded: competitive inhibition
pKi [3]: 3.81

CCCCC/C=C\C/C=C\C/C=C\C/C=C\CCCC(=O)O [arachidonic acid]
inhibition mechanism ([2]; fatty acids): mixed-type

CC/C=C\C/C=C\C/C=C\C/C=C\C/C=C\CCCC(=O)O [eicosapentaenoic acid]
inhibition mechanism ([2]; fatty acids): mixed-type

O=c1c(-c2ccc(O)cc2)coc2cc(O)cc(O)c12 [genistein]
inhibition type [2]: non-competitive inhibitor

CCCCC/C=C\C/C=C\CCCCCCCC(=O)O [linoleic acid]
inhibition mechanism ([2]; fatty acids): mixed-type

CCCCCCCC/C=C\CCCCCCCC(=O)O [oleic acid]
inhibition mechanism ([2]; fatty acids): mixed-type

CC/C=C\C/C=C\C/C=C\CCCCCCCC(=O)O [α-linolenic acid]
inhibition mechanism ([2]; fatty acids): mixed-type

hydroxyglutaric acid [HGA]
IC50 ([2]; from Paenibacillus sp. TKU042): 220 µg/mL
